What was measured:
α5β3γ2 GABAA receptors = target: T1, α5β3γ2 GABAA receptors (Rattus norvegicus, UniProt P19969+P63079); design: method as in earlier work; settings: published data, ref 1 (Supplementary References), read-out: Approximate EC50; cited from earlier work
T1 construct: expressed in transfected cells; host or cells: Xenopus laevis oocytes, mRNA injected

α4β3γ2 GABAA receptors = target: T2, α4β3γ2 GABAA receptors (Rattus norvegicus, UniProt P28471+P63079); design: method as in earlier work; settings: published data, ref 1 (Supplementary References), read-out: Approximate EC50; cited from earlier work
T2 construct: expressed in transfected cells; host or cells: Xenopus laevis oocytes, mRNA injected
T2 sequence (P28471 36-552): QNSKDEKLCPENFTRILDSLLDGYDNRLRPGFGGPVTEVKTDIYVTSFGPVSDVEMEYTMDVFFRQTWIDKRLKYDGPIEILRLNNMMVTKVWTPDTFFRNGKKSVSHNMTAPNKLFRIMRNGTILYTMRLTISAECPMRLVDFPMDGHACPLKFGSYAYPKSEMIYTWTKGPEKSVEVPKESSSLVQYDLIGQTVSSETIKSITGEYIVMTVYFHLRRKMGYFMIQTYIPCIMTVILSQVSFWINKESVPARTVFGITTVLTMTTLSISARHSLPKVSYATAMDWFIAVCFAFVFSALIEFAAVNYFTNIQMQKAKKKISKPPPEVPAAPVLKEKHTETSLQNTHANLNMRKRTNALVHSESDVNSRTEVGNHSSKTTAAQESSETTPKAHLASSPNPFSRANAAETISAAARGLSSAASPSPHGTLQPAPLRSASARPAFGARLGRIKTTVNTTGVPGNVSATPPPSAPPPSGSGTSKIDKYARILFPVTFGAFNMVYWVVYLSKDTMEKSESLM
T2 sequence (P63079 26-473): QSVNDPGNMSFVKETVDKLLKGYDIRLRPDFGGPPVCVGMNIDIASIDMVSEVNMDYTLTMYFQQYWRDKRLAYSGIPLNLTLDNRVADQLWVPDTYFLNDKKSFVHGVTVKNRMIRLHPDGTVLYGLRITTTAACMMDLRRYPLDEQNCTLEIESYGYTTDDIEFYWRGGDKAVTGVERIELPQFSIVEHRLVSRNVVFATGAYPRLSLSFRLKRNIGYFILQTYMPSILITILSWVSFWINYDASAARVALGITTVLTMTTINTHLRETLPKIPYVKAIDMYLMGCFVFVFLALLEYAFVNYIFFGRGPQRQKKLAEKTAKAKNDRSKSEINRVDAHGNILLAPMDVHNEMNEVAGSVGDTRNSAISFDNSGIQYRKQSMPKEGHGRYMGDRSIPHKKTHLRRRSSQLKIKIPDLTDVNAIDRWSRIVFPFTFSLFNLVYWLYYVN
T2 sequence (P18508 39-466 partner): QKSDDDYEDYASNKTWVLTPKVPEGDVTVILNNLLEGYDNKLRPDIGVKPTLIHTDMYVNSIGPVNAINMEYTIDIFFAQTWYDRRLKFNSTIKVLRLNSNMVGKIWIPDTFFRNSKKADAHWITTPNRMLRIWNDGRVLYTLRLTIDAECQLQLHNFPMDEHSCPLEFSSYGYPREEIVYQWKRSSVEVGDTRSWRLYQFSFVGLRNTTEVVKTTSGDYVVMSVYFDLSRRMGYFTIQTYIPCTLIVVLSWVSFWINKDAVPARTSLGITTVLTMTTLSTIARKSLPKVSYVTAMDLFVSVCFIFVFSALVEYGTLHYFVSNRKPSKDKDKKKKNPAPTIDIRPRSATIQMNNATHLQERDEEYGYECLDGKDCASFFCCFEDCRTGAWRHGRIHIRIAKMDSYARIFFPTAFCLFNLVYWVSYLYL

α1β1γ1 GABAA receptors = target: T3, α1β1γ1 GABAA receptors (Rattus norvegicus, UniProt P15431+P62813); experiment: Two electrode voltage clamp in Xenopus laevis oocytes, α1β1γ1; type: cell-based
T3 construct: expressed in transfected cells; host or cells: Xenopus laevis oocytes, mRNA injected
T3 sequence (P62813 28-455): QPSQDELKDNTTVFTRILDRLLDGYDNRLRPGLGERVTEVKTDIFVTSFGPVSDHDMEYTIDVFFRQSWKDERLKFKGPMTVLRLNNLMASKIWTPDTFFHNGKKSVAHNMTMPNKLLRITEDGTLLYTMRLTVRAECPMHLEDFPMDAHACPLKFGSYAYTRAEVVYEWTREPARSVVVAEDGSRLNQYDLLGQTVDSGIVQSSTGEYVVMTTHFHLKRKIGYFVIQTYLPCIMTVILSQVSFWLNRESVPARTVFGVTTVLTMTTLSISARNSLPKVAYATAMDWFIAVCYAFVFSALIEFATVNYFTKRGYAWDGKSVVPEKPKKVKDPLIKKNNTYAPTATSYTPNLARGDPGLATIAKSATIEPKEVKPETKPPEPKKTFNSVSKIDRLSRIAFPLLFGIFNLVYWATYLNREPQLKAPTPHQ
T3 sequence (P15431 26-474): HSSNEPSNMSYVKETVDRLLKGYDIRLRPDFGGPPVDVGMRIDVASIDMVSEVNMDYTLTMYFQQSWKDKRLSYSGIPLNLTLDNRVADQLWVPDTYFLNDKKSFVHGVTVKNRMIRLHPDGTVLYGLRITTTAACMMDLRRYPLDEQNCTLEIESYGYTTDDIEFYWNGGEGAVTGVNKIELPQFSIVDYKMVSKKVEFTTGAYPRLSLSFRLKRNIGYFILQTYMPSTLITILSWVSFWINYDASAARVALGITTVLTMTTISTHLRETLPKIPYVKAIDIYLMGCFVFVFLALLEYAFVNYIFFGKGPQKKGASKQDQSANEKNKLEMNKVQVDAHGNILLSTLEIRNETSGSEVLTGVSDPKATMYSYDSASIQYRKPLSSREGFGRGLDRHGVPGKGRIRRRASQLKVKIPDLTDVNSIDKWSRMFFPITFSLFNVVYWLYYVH
T3 sequence (P23574 36-465 partner limits assumed): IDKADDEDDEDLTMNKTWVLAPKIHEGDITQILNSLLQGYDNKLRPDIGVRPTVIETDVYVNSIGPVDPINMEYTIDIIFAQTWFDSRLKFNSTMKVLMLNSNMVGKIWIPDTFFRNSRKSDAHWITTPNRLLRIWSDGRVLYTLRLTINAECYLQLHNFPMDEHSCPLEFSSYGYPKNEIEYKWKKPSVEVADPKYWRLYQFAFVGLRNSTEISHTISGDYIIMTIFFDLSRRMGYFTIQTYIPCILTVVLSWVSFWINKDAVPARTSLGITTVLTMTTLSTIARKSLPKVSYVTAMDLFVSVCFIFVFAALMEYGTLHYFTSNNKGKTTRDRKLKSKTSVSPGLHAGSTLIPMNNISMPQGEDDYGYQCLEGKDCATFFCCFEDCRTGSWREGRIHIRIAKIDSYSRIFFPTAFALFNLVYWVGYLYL
Source text: cDNA’s of rat GABAA receptor subunits α1, α4, β1, β2, β3 and γ2S were cloned as described. cDNAs of the rat subunits α2, α3 and α5 were gifts from P. Malherbe, that of α6 and γ1 were gifts of P. Seeburg and that of δ was a gift of C. Czajkowski. The mutants were constructed using the Q5 Site-Directed Mutagenesis Kit (New England Biolabs) following manufacturer’s instruction. We used the wild-type rat β3-pCI vector as template and the primers […] and […] resulting in a substitution of amino acid N41 (AAC) to R (AGG). We used the wild-type rat β1-pCI vector as template and the primers […] and […] resulting in a substitution of amino acid R41 (CGG) to N (AAC). The mutated subunits were confirmed by sequencing.
In vitro transcription of mRNA was based on the cDNA expression vectors encoding for rat GABAA receptor subunits α1–6, β1-3, γ1,2, δ and the two β mutants (β1R41N and β3N41R)[40]. After linearizing the cDNA vectors with appropriate restriction endonucleases, the cDNA was purified and concentrated with the DNA Clean and Contentrator ^TM Kit (Zymoresearch, Catalog No. D4005). Capped transcripts of the purified cDNA were produced using the mMESSAGE mMACHINE® T7 transcription kit (Ambion, TX, USA) and polyadenylated using the Ambion PolyA tailing kit (Ambion). After transcription and polyadenylation the RNA was purified with the MEGAclear ^TM Kit (Ambion, Catalog No. AM1908). The final RNA concentration was measured on NanoDrop® ND-1000 and finally diluted and stored in diethylpyrocarbonate-treated water at −80 °C. For the microinjection, the RNA of αβ receptor combinations was mixed at 1:1 ratio (which leads to αβ receptors that consist of predominantly 3 beta and 2 alpha subunits[27]), for αkβlγm (k = 1–3, l = 1, 3, m = 1, 2) receptors at 1:1:5 ratio, for αkβ3γ2 (k = 4–6) and αkβlδ (k = 1, 4 and 6, l = 1, 3) receptor combinations at 3:1:5 ratio.
Mature female Xenopus laevis (Nasco, WI) were anesthetized in a bath of ice-cold 0.17% Tricain (Ethyl-m-aminobenzoate, Sigma, MO) before decapitation in full accordance with all rules of the Austrian animal protection law (see http://www.ris.bka.gv.at/Dokumente/BgblAuth/BGBLA_2012_I_114/BGBLA_2012_I_114.pdf) and the Austrian animal experiment by-laws (see https://www.ris.bka.gv.at/Dokumente/BgblAuth/BGBLA_2012_II_522/BGBLA_2012_II_522.pdf) which implement the European Directive 2010/63/EU (see http://eur-lex.europa.eu/LexUriServ/LexUriServ.do?uri=OJ:L:2010:276:0033:0079:en:PDF) into the Austrian law (all information accessed on July 27, 2016). The frog’s ovaries were transferred to ND96 medium (96 mM NaCl, 2 mM KCl, 1 mM MgCl2, 5 mM HEPES; pH 7.5). Stage 5–6 oocytes with the follicle cell layer around them were roughly dissected with forceps into packages of 10–15 cells and washed in Ca^2+-free ND96 medium. Cells were then digested with collagenase (type IA, Sigma, NO, 1 mg/mL ND96) at 18 °C shaking at 30 rpm for 30–60 minutes and gently defolliculated with the aid of a glass pipette with appropriate tip diameter and a platinum loop. Defolliculated cells were stored at 18 °C for at least 6 hours in ND96 solution containing penicillin G (10000 IU/100 mL) and streptomycin (10 mg/100 mL) in order to preselect and exclude damaged cells from further treatment. Healthy defolliculated oocytes were injected with an aqueous solution of mRNA. A total of 4.5 ng of mRNA per oocyte was injected with a Nanoject II (Drummond). After injection of mRNA, oocytes were incubated at 18 °C (ND96 + antibiotic) for 2–3 days for αβ receptors and for 3–4 days for αβγ or αβδ receptors before recording. When cells were measured at later time points, oocytes were stored at +4 °C instead of 18 °C.
For electrophysiological recordings, oocytes were placed on a nylon-grid in a bath of Ca^2+-containing NDE solution medium [96 mM NaCl, 5 mM HEPES-NaOH (pH 7.5), 2 mM KCl, 1 mM MgCl2, 1.8 mM CaCl2].

α1β1γ2 GABAA receptors = target: α1β1γ2 GABAA receptors; design: method as in earlier work; settings: published data, ref 1 (Supplementary References), read-out: Approximate EC50; cited from earlier work
α2β3γ2 GABAA receptors = target: T4, α2β3γ2 GABAA receptors (Rattus norvegicus, UniProt P23576+P63079); design: method as in earlier work; settings: published data, ref 1 (Supplementary References), read-out: Approximate EC50; cited from earlier work
T4 construct: expressed in transfected cells; host or cells: Xenopus laevis oocytes, mRNA injected
T4 sequence (P23576 29-451): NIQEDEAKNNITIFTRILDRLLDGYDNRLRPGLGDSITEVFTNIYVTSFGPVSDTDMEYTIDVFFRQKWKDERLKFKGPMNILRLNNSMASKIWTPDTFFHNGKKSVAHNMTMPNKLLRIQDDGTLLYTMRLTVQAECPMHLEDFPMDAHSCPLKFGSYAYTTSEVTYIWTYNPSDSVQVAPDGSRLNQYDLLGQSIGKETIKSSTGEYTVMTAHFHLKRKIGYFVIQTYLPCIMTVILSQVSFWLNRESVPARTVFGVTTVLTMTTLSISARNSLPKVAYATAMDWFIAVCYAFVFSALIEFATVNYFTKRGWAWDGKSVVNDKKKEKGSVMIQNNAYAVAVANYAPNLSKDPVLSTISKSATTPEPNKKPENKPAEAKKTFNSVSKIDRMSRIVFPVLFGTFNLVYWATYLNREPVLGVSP
T4 sequence (P63079 26-473): as the sequence (P63079 26-473) above
T4 sequence (P18508 39-466 partner): as the sequence (P18508 39-466 partner) above

T1 sequence (P19969 32-464 limits assumed): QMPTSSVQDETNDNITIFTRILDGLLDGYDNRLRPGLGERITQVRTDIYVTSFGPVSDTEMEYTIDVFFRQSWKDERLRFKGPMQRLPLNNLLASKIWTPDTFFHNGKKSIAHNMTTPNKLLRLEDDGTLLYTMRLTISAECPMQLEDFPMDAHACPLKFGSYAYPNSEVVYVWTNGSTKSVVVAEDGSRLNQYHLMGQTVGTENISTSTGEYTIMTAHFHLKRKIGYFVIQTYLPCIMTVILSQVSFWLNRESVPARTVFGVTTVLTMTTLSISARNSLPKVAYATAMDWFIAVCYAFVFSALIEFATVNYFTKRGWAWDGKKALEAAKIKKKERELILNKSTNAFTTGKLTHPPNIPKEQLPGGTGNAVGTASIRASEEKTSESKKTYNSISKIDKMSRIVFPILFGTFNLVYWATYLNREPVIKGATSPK
T1 sequence (P63079 26-473): as the sequence (P63079 26-473) above
T1 sequence (P18508 39-466 partner): as the sequence (P18508 39-466 partner) above

COc1ccc(-n2nc3c4cc(Cl)ccc4[nH]cc-3c2=O)cc1 [Compound 1, 8-Chloro-2-(4-methoxyphenyl)-2H-pyrazolo[4,3-c]quinolin-3(5H)-one]
EC50 (α5β3γ2 GABAA receptors): ~600 nM | EC50 (α4β3γ2 GABAA receptors): ~900 nM | EC50 (α1β1γ1 GABAA receptors): 80 nM | activity at 0.001 µM (α1β1γ1 GABAA receptors; read-out: efficacy, % of control current (GABA EC3-5 = 100%), α1β1γ1, 1 nM): 110 ± 9.9% | activity at 1 µM (α1β1γ1 GABAA receptors; read-out: efficacy, % of control current (GABA EC3-5 = 100%), α1β1γ1, 1 µM): 320 ± 17.9% | activity at 10 µM (α1β1γ1 GABAA receptors; read-out: efficacy, % of control current (GABA EC3-5 = 100%), α1β1γ1, 10 µM): 300 ± 20.8% | Hill slope (nH) (α1β1γ1 GABAA receptors; α1β1γ1): 1.1±0.4 | EC50 (α1β1γ2 GABAA receptors): ~100 nM | EC50 (α2β3γ2 GABAA receptors): ~2200 nM

From publication PMC5516028, “Molecular tools for GABAA receptors: High affinity ligands for β1-containing subtypes” (Scientific Reports, 2017)
